# Test results taken from ChEMBL document CHEMBL1131696, “Highly constrained dipeptoid analogues containing a type II' beta-turn mimic as novel and selective CCK-A receptor ligands” (Bioorg Med Chem Lett, 1999).
# Tests used:
# [1] = target: T1, Gastrin/cholecystokinin type B receptor (Mus musculus, UniProt P56481); assay: Inhibition of [3H]propionyl-CCK-8 binding to mouse cerebral cortex membrane cholecystokinin-B (CCK-B) receptor; format: tissue-based
# T1 sequence (P56481 whole entry): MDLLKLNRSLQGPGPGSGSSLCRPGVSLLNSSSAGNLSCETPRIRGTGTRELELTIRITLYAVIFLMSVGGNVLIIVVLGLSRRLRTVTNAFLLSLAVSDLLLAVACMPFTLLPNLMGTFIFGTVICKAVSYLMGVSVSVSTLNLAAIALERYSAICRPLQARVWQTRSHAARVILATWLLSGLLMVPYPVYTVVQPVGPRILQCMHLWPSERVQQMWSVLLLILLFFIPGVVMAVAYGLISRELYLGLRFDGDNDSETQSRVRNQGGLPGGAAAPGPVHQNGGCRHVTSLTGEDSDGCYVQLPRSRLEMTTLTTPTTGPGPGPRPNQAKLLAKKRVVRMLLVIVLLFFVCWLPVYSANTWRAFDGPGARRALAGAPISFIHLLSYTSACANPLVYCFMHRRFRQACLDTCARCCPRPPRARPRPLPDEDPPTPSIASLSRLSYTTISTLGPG
# [2] = target: T2, Cholecystokinin receptor type A (Rattus norvegicus, UniProt P30551); assay: Inhibition of [3H]propionyl-CCK-8 binding to rat pancreas cholecystokinin-A (CCK-A) receptor
# T2 sequence (P30551 whole entry): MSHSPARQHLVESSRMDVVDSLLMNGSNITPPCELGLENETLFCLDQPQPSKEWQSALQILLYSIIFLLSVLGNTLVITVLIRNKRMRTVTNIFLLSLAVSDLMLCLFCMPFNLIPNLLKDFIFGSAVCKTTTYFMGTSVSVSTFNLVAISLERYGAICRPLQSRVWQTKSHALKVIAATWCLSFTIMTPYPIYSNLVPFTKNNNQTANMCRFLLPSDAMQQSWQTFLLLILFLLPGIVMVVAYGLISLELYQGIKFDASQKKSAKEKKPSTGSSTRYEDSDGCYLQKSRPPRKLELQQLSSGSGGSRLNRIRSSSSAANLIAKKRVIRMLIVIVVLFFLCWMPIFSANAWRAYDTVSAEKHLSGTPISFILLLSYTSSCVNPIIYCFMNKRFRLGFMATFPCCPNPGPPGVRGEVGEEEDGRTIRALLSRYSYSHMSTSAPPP
IC50 [1] [µM],IC50 [2] [nM],SMILES
> 10,> 10000,CC(C)(C)OC(=O)N[C@H]1C[C@@H]2c3[nH]c4ccccc4c3C[C@@H](C(=O)N[C@H](CC(=O)O)Cc3ccccc3)N2C1=O
1.5,180,C[Si](C)(C)CCOC(=O)C[C@@H](Cc1ccccc1)NC(=O)[C@@H]1Cc2c([nH]c3ccccc23)[C@H]2C[C@H](NC(=O)OCc3ccccc3)C(=O)N21
> 10,88,O=C(O)C[C@H](Cc1ccccc1)NC(=O)[C@@H]1Cc2c([nH]c3ccccc23)[C@H]2C[C@H](NC(=O)OCc3ccccc3)C(=O)N21
> 10,460,C[Si](C)(C)CCOC(=O)C[C@H](Cc1ccccc1)NC(=O)[C@@H]1Cc2c([nH]c3ccccc23)[C@@H]2C[C@H](NC(=O)OCc3ccccc3)C(=O)N12
2.7,7.4,O=C(O)C[C@@H](Cc1ccccc1)NC(=O)[C@@H]1Cc2c([nH]c3ccccc23)[C@H]2C[C@H](NC(=O)OCc3ccccc3)C(=O)N21
> 10,1400,C[Si](C)(C)CCOC(=O)C[C@@H](Cc1ccccc1)NC(=O)[C@@H]1Cc2c([nH]c3ccccc23)[C@@H]2C[C@H](NC(=O)OCc3ccccc3)C(=O)N12
> 10,1000,O=C(O)C[C@@H](Cc1ccccc1)NC(=O)[C@@H]1Cc2c([nH]c3ccccc23)[C@@H]2C[C@H](NC(=O)OCc3ccccc3)C(=O)N12
> 10,4480,CC(C)(C)OC(=O)N[C@H]1C[C@@H]2c3[nH]c4ccccc4c3C[C@@H](C(=O)N[C@@H](CC(=O)O)Cc3ccccc3)N2C1=O
2.4,220,C[Si](C)(C)CCOC(=O)C[C@H](Cc1ccccc1)NC(=O)[C@@H]1Cc2c([nH]c3ccccc23)[C@H]2C[C@H](NC(=O)OCc3ccccc3)C(=O)N21
> 10,635,O=C(O)C[C@H](Cc1ccccc1)NC(=O)[C@@H]1Cc2c([nH]c3ccccc23)[C@@H]2C[C@H](NC(=O)OCc3ccccc3)C(=O)N12
